The source of these data is patent US10759822B2 (priority 2016, dated 2020).

The test system of series [1] is field EPSP in the rat dentate gyrus. Particulars: in vivo, ip; cited from earlier work.
Series [2] concerns 030418-induced acute death in mice. Further details: species or system KM mice. Particulars: mouse, in vivo.
For series [3] the following is noted: mouse, in vivo.
For series [4] the following is noted: mouse, in vivo. The source holds these as a separate data set.
Series [5] concerns 030418-induced respiratory depression rats. Particulars: rat, in vivo.
Series [6] deals with hyperactivity induced by d-amphetamine. Particulars: in vivo, ip, 2 mg/kg; cited from earlier work.

On to `O=C(c1ccc2nccnc2c1)N1CCCCC1` [CX516, 6-(piperidin-1-yl-carbonyl)quinoxaline], for which, in series [1], the “increase in the amplitude of the field EPSP” value was 9%.
Turning to `C/C(=C(\CCOC(=O)CCCC(=O)OC1CCC(N(C)C(=O)c2ccc3nonc3c2)CC1)SSCCC(C)C)N(C)C=O` (stereo not drawn) [Compound 15, Pentanedioic acid anti-4-[(benzo[c][1,2,5]oxadiazole-5-carbonyl)-methyl-amino]-cyclohexyl ester 3-isopentyldisulfanyl-4-(formyl-methyl-amino)-pent-3-enyl ester], in series [2], the “survival rate of mice” value is on record as “increase the survival rate of mice in a dose-dependent manner”. The “molar dose for the same anti-lethal effect, relative to Compound a” value in series [2] (sc, 15 mg/kg) is given as “one-eighth”. Besides, in series [3], the “(AUC0-t)prodrug group/(AUC0-t)prototype drug group” value is recorded as 0.41. In addition, the “(AUC0-t)prodrug/(AUC0-t)prototype drug” value in series [4] is on record as 2.23. Also, in series [5], the “antagonism toward the decreased respiratory rate and ventilation caused by 030418” value is given as “dose-dependent antagonism”; the “effect on respiratory rate and ventilation compared with Compound a” value was “same effect as Compound a (10 mg/kg)”.
As for `CCSS/C(CCOC(=O)CCCC(=O)OC1CCC(N(C)C(=O)c2ccc3nonc3c2)CC1)=C(/C)N(C=O)CC(=O)OCC1OC(O)C(O)C(O)C1O` [Compound 20, Pentanedioic acid anti-4-[(benzo[c][1,2,5]oxadiazole-5-carbonyl)-methyl-amino]-cyclohexyl ester 3-ethyldisulfanyl-4-[formyl-(D-glucos-6-yl-carbonylmethyl)-amino]-pent-3-enyl ester], the “(AUC0-t)prodrug group/(AUC0-t)prototype drug group” value in series [3] is 0.82. Moreover, the “(AUC0-t)prodrug/(AUC0-t)prototype drug” value in series [4] turned out to be 1.65.
For the compound `CN(C(=O)c1ccc2nonc2c1)C1CCC(O)CC1` (stereo not drawn) [Compound a, N-(anti-4-hydroxycyclohexyl)-N-methylbenzo[c][1,2,5]oxadiazol-5-yl-carboxamide, reference compound], the inhibition of hyperactivity in series [6] is 100%. This compound displayed a Death rate in series [2] of 20%. In addition, the “increase in the amplitude of the field EPSP” value in series [1] is on record as 21%.
